The conditions of series [1]: final printed label of ACEON Tablets, cited from earlier work.
Series [2] in a line: Compressibility Index (Flowability) by standard methods. Particulars: crystalline powder. Type of series: physicochemical. The protocol: (§1) Compressability Index, or in other words the Flowability of the two materials were determined by standard methods practiced in the art. The Particle Size Distribution was determined using a Mastersizer 2000, Version 2 instrument with cyclohexane as the dispersant.

Series [3] is described as follows: Particle Size Distribution, Mastersizer 2000 with cyclohexane as the dispersant. The series is classed as physicochemical. The protocol:
as §1

SMILES strings stand for the structures.

The values that follow come from patent US7456296B2, “Method for preparation of crystalline perindopril erbumine” (Lupin Ltd, priority 2003, dated 2008).

Regarding `CCC[C@H](N[C@@H](C)C(=O)N1[C@H](C(=O)O)C[C@@H]2CCCC[C@@H]21)C(=O)OCC` [perindopril erbumine], the solubility in alcohol result in series [1] (alcohol) was “freely soluble”. Also, the solubility in chloroform entry in series [1] (chloroform) was “freely soluble”. The solubility in water in series [1] (water) is on record as 60 % w/w.

For the molecule `CCC[C@H](N[C@@H](C)C(=O)N1[C@H](C(=O)O)C[C@@H]2CCCC[C@@H]21)C(=O)OCC` [Perindopril erbumine crystallized as per the method of the p], the “Compressibility Index” value in series [2] was determined as 23.8. In series [3], the “Particle Size Distribution (10%)” value is 9.06μ (10%);, the “Particle Size Distribution (50%)” value was 36.37μ (50%); and the “Particle Size Distribution (90%)” value was 119.78μ (90%).

With `CCC[C@H](N[C@@H](C)C(=O)N1[C@H](C(=O)O)C[C@@H]2CCCC[C@@H]21)C(=O)OCC` [Perindopril erbumine crystallized as per the method of U.S. ], in series [2], the “Compressibility Index” value is recorded as 20.00. For the same molecule, in series [3], the “Particle Size Distribution (10%)” value was 16.39μ (10%);, the “Particle Size Distribution (50%)” value is given as 70.18μ (50%); and the “Particle Size Distribution (90%)” value was 188.11μ (90%).
